Test system: p-STAT3/c-MYC
Assay: Secondary screening for effects on p-STAT3/c-MYC protein levels
Assay type: cell-based
Settings: secondary screening of 75 compounds
Protocol: In a clinical setting, treatment with exogenous growth factors would present a difficult and expensive strategy. To address this, our group designed a high throughput screen to identify small molecule modulators of chondrogenic differentiation based on the prevention of the hypertrophy-associated marker collagen X (COLX). […] Importantly, the stimulatory effect of CRMs on p-STAT3 and c-MYC was reversible; protein levels of both p-STAT-3 and c-MYC decreased 48 hours after CRM-398 or -423 withdrawal (data not shown). Identification of such compounds can not only allow us to control differentiation of chondrocytes, but also manipulate the expression of STAT3 and c-MYC to achieve rejuvenation of adult chondrocytes. CRM-398 and -423 can be tested in parallel with LIF and their effects on adult articular chondrocyte activation can be assessed as described herein.
A strategy for screening for molecules with anti-differentiation effects includes observation of primary limb mesenchyme from mCherry-COL10A1 mice. The screening strategy identifies molecules with STAT3 and c-Myc modulatory activity. FIG. 14 depicts exemplary results for a screening conducted on 170,000 compounds, resulting in 469 hits. FIG. 15 depicts percentage positive z-scores for the 469 compounds identified. FIG. 16 depicts a further screening analysis of the previously identified 469 hit compounds, resulting in 75 refined hits. […]

`Brc1ccc(Nc2nc(-c3ccccc3)cs2)cc1` [RCGD 423, N-(4-Bromophenyl)-4-phenyl-1,3-thiazol-2-amine] was tested, and the “effects on p-STAT3/c-MYC protein levels” value was “most prominent effects”.
